From ChEMBL document CHEMBL1221261, “Fluorescent retinoid X receptor ligands for fluorescence polarization assay” (Bioorg Med Chem Lett, 2010)
The source made the active and inactive calls. The calls are words filed in the database; no cut-off is given here.

Assays:
[1] = target: T1, Retinoic acid receptor RXR-alpha (Homo sapiens) (UniProt P19793); experiment: (§1) Agonist activity at human RXRalpha expressed in […] cells by luciferase reporter gene assay; format: functional, cell-based; details: COS-7
T1 sequence (whole entry): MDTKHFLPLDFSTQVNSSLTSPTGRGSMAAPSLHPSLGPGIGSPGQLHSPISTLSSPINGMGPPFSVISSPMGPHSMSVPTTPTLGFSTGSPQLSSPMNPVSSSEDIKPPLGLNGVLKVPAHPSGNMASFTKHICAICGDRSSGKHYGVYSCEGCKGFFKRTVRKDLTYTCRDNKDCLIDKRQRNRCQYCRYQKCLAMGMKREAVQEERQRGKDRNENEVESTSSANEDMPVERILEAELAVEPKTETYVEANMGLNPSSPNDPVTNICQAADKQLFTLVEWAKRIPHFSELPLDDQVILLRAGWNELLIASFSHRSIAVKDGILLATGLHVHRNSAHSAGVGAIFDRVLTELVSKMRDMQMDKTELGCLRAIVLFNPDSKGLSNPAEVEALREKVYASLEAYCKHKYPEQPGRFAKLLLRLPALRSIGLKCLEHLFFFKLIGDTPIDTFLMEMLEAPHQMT

[2] = target: T1, Retinoic acid receptor RXR-alpha (Homo sapiens); experiment: Agonist activity at human RXRalpha expressed in […] cells at 1 uM by luciferase reporter gene assay; format: functional, cell-based; details: COS-7
[3] = target: T2, Retinoic acid receptor RXR-alpha (Homo sapiens, UniProt P19793); experiment: as §1; format: functional, cell-based, COS-7
T2 sequence (P19793 whole entry): T1 sequence (whole entry)

Activity [1] | Activity [2] | EC50 [3] [nM] | Structure (SMILES)
inactive | – | – | CCN(c1ccc(C(=O)O)cn1)c1ccc2c(C)cc(=O)n(C)c2n1
– | Active | 1000 | CCN(c1ccc(C(=O)O)cn1)c1ccc2c(C(F)(F)F)cc(=O)n(CC(C)C)c2n1
– | – | 1000 | CCN(c1ccc(C(=O)O)cn1)c1ccc2c(C(F)(F)F)cc(=O)n(C)c2n1
– | – | 1000 | CCN(c1ccc(C(=O)O)cn1)c1ccc2c(C(F)(F)F)cc(=O)n(CC)c2n1
